{
  "source": "patent US12059000B1",
  "about": "“Use of erythritol compositions as mammal-safe insecticides” (Drexel University, priority 2020, dated 2024)",
  "key": {"[1]": {"system": "fruit flies", "assay": "Comparison of erythritol with other sweet alcohols, fly longevity", "format": "in vivo, Drosophila melanogaster", "conditions": "1 M in standard fly food, 17 days", "method": "An experiment was conducted to compare the effectiveness of erythritol with other human-safe sweet alcohols: D-mannitol, maltitol, sucrose, and xylitol. The concentration of all sweet alcohols were 1M.\nFlies were raised for 17 days on standard fly food that contained 1 M concentrations of each sweetener treatment. Death of flies was recorded daily as before; each treatment was replicated on three vials of 10 flies each for 30 subjects/treatment. Differences in longevity were analyzed using the Kaplan-Meier survival analysis log rank test, making all pairwise comparisons among treatments."}, "[2]": {"system": "Drosophila melanogaster", "assay": "Drosophila longevity assay on food containing sweeteners", "format": "in vivo", "conditions": "repeat with blue food, 0.0238 g/ml", "method": "All animals were cultured at 25° C., kept at 50-60% humidity, and were raised under a standard 12:12 light dark cycle. For each experimental treatment, n=30 flies were tested in groups of 10 per tube, and three tubes per treatment. Tubes were kept on their side to minimize subject becoming mired in the food. Foods were replaced twice a week. The total number of fruit flies used for these experiments was 780, with 300 used for two initial trials testing mortality among store-brand sweeteners, 210 used for repeating this with blue dye and pure erythritol, 120 for choice trials and 150 for concentration trials.\nStandard Drosophila food for larval culturing consisted of water, cornmeal, yeast, molasses, and agar, as previously described (Chakraborty, et al., 2011, PLoS ONE 6: e20799). […] The addition of cornmeal and yeast assured the flies still received sufficient carbohydrates and protein in addition to any effects of the treatment additives.\nDrosophila food was combined with an equal weight/volume (0.0238 g/ml) of one non-nutritive sweetener (TRUVIA, EQUAL, SPLENDA, SWEET'NLOW, or PUREVIA) or a control nutritive sweetener (controls: sucrose or corn syrup). Wild type (Canton S) larvae were initially raised on the standard food, and 0-12 hour old adult flies were transferred to foods containing one non-nutritive sweetener or a control treatment. […] The number of dead flies were scored daily."}, "[3]": {"system": "Drosophila melanogaster", "assay": "Erythritol concentration trials on fly longevity", "format": "in vivo", "method": "Standard fly foods were prepared as previously described, and then were treated with 2M, 1M, 0.5M and 0.1M concentrations of erythritol, using 0.5M sucrose as control. 0 to 24 hour-old Drosophila were placed on these foods and mortality was recorded daily for 35 days as above. Analyses were conducted with SPSS software v. 20 (IBM corporation 2011). Fly longevity data were analyzed using survival analysis with right-hand censoring of subjects that lived to the end of the study or were lost for reasons other than death. Test were run for differences in survival distributions [Pr(flies alive) versus insect age] using the log-rank (Mantel-Cox) test to make all pairwise comparisons among treatments within each experiment."}, "[4]": {"system": "Drosophila melanogaster", "assay": "Two-way choice experiments, fly longevity", "format": "in vivo", "method": "Foods containing 2 M erythritol, 1M erythritol and 1M sucrose were prepared for paired presentations in open choice tests. In each treatment one food type contained 0.05% brilliant blue FCF (Fisher 50-727-25). The blue dye allowed visual confirmation of feeding on the dyed food in the pair. The flies were presented with access to two food choices by using a modified cotton stopper with approximately a 1.5 cm diameter hole to connect each pair of food tubes.\nThe final choice treatment was between blue 2M erythritol food and non-blue 1M sucrose food (this treatment provides a comparison with the 1M erythritol/1M erythritol treatment as a test of dilution of toxicity by alternative food sources; blue guts would confirm erythritol was being consumed in the presence of sucrose). The number of flies with visible blue gut contents and mortality daily were recorded for 30 days.\nAnalyses were conducted with SPSS software v. 20 (IBM corporation 2011). Fly longevity data were analyzed using survival analysis with right-hand censoring of subjects that lived to the end of the study or were lost for reasons other than death. Test were run for differences in survival distributions [Pr(flies alive) versus insect age] using the log-rank (Mantel-Cox) test to make all pairwise comparisons among treatments within each experiment."}, "[5]": {"system": "R. flavipes workers", "assay": "Termite survival experiment on erythritol-treated paper", "format": "in vivo, Reticulitermes flavipes", "method": "Termites used in the survival and choice experiments were collected from three field colonies in Scotland Run Park (39.66° N, 75.05° W) in Clayton, NJ between April and May 2019. After collection, colonies were maintained in plastic containers with soil and wood from the collection site as a substrate in laboratory conditions (20.8±0.9° C., 49±7% RH). Termites used in the consumption experiment were collected from a single field colony at Cobb's Creek Park (39.94° N, 75.24° W) in Philadelphia, PA during September of 2018. Workers were removed from the log and housed within 24 h of collection in 9 cm diameter petri dishes containing damp paper towel as a food source. Dishes were placed in an incubator at 26° C. (relative humidity varied between 40 and 60% across trials, but was consistent among all treatments within each trial). Each petri dish contained 10 workers. Termites used in all experiments measured 3-4 mm in length.\nFor the survival experiment, unbleached, brown paper towels (12 cmx 24 cm, cat no. 01801, Kimberly-Clark Corporation, Neenah, WI), were completely submerged for 15 s in solution of distilled water, erythritol (100% purity, NOW foods, Bloomingdale, IL) of the below-specified concentrations, and 0.05% Brilliant Blue R-250 dye (cat. no 27816, Sigma-Aldrich, St. Louis, MO). The erythritol concentrations used were: 0 M (control), 0.25 M, 0.5 M, 0.75 M, 1.0 M, and 1.25 M. The treated paper towels were removed from solution and allowed to dry horizontally on racks before being cut into squares with an area of 144 cm^2. […]\nFollowing the pretrial period, the experiment was set up: pretrial paper towels were removed and replaced with treated paper towels of the correct erythritol treatment concentration; these were rehydrated with 750 μL of distilled water. […] Termite mortality was recorded every 24 h for 8 d.\nAnalyses were performed using SPSS v. […] Mean percent mortality was calculated for each concentration across colonies at 72 and 96 h and a three parameter, best-fit sigmoid curve was fitted to the data in Sigmaplot to assess LC at these time points."}, "[6]": {"system": "fruit flies", "conditions": "0.5 M erythritol food, previous work; cited from earlier work"}, "[7]": {"conditions": "humans, even in high concentrations; cited from earlier work"}},
  "note": "Entries after “also recorded” stand apart in the source; their conditions may differ.",
  "data": [
    {"smiles": "OC[C@@H](O)[C@@H](O)[C@H](O)[C@H](O)CO", "note": "[D-mannitol]", "values": [
      {"measurement": "fly longevity / insecticidal effect compared to sucrose control", "setting": "[1]", "value": "did not differ from sugar control; also recorded: slightly but significantly reduced longevity; also recorded: almost insignificant insecticidal effect"}
    ]},
    {"smiles": "OC[C@@H](O)[C@@H](O)CO", "note": "[erythritol, (2R,3S)-butane-1,2,3,4-tetraol]", "values": [
      {"measurement": "longevity compared to PUREVIA, EQUAL, sucrose and corn syrup (FIG. 3)", "setting": "[2]", "value": "significant decrease in longevity"},
      {"measurement": "longevity compared to control food containing 0.5M sucrose", "setting": "[3]; 0.1M in food, 35 days", "value": "no significant difference in longevity"},
      {"measurement": "dose response of fly longevity (FIG. 4)", "setting": "[3]; 0.1M, 0.5M, 1.0M and 2.0M in food", "value": "significant decrease in longevity of adult flies as concentration of erythritol was increased; also recorded: dose-dependent reduction in longevity"},
      {"measurement": "longevity compared to control food containing 0.5M sucrose", "setting": "[3]; 0.5M in food, 35 days", "value": "significant reductions in longevity"},
      {"measurement": "longevity compared to control food containing 0.5M sucrose", "setting": "[3]; 1M in food, 35 days", "value": "significant reductions in longevity"},
      {"measurement": "longevity compared to all other treatments", "setting": "[3]; 2M in food, 35 days", "value": "significant and severe effect on longevity"},
      {"measurement": "longevity relative to sucrose:sucrose choice (FIG. 5)", "setting": "[4]; choice between 1M sucrose and 1M erythritol", "value": "significant decrease in longevity; also recorded: significantly decreased longevity"},
      {"measurement": "longevity relative to sucrose:sucrose choice (FIG. 5)", "setting": "[4]; choice between 1M sucrose and 2M erythritol", "value": "significant decrease in longevity; also recorded: significantly reduced"},
      {"measurement": "fly longevity / insecticidal effect compared to sucrose control", "setting": "[1]", "value": "toxic to fruit flies upon ingestion"},
      {"measurement": "mean fly longevity", "setting": "[1]", "value": "4.7 ± 0.15", "unit": "days"},
      {"measurement": "longevity of workers to 8 d, erythritol treatments versus 0M control (FIG. 9)", "setting": "[5]; 0.25-1.25 M treated paper, 8 d", "value": "All treatments are significantly different from 0 M; also recorded: differed significantly"},
      {"measurement": "lowest concentration with significant effects on longevity", "setting": "[5]; R. flavipes workers, 8 d", "value": 0.25, "unit": "M"},
      {"measurement": "time to 50% mortality", "setting": "[5]; termites, 0.5 M erythritol filter papers", "value": "≤ 2", "unit": "days"},
      {"measurement": "time to 50% mortality", "setting": "[6]", "value": 20, "unit": "days"},
      {"measurement": "safety of consumption", "setting": "[7]", "value": "safe to humans"}
    ]},
    {"smiles": "OC[C@@H](O)[C@@H](O[C@H]1O[C@H](CO)[C@@H](O)[C@H](O)[C@H]1O)[C@H](O)[C@@H](O)CO", "note": "[maltitol]", "values": [
      {"measurement": "fly longevity / insecticidal effect compared to sucrose control", "setting": "[1]", "value": "did not differ from sugar control; also recorded: did not differ from the control; also recorded: not effective at reducing fly longevity"}
    ]},
    {"smiles": "OC[C@@H](O)[C@H](O)[C@@H](O)CO", "note": "[xylitol]", "values": [
      {"measurement": "fly longevity / insecticidal effect compared to sucrose control", "setting": "[1]", "value": "did not differ from sugar control; also recorded: did not differ from the control; also recorded: not effective at reducing fly longevity"}
    ]}
  ]
}
